For 23 compounds, IC50 results are on record in patent US20230203060A1 (GENFLEET THERAPEUTICS (SHANGHAI) INC., priority 2020, published 2023).

A word on the IC50: it is the concentration at which inhibition is half-maximal. Read a high IC50 as lower potency.

For this test, the target named is T1, KRAS G12C (Homo sapiens, UniProt P01116, G12C).
T1 construct: purchased Reactionbiology
T1 sequence (P01116 1-188 isoform P01116-2 G12C): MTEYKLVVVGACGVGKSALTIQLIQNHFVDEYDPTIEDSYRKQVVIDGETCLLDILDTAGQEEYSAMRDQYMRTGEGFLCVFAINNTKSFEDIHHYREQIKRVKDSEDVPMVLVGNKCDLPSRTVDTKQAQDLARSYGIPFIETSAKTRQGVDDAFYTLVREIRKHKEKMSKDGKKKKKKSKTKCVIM
Put plainly: KRAS G12C NEA-HTRF experiment (SOS1-catalyzed displacement of GDP by GTP). Format: biochemical. From the text: Raw materials and instruments: KRAS G12C (his-tag) purchased from Reactionbiology; batch number 3496; SOS1 purchased from Reactionbiology; batch number: 3501; GTP purchased from Sigma; article number: G8877; batch number: SLBV1450; Tris-HC1 purchased from Sigma; EDTA purchased from absin; article number: abs42017668; batch number: JE20; NaCl purchased from Sigma; article number: 55886; batch number: SLBW4193; MgCl2 purchased from Shyuanye; article number: R21455; batch number: L07S9G69806; HEPES purchased from Life Technologies; article number: 15630-080; batch number: 2037042; DTT purchased from Thermo Fisher; article number: R0862; batch number: 00608918; Triton X-100 purchased from Sigma; article number: T8787-100 ML; batch number: SLBW7103; DY647-labeled GDP purchased from Jena Bioscience; article number: NU-840-647P1; batch number: BM019-045; Anti-6H1S-Tb purchased from Cisbio; article number: 61H12TLA; batch number: 13A; Bradford Assay Kit purchased from Thermo Fisher; article number: 23246; batch number: UG287474; white opaque 96-well plate purchased from Cisbio; article number: 66PL96025; batch number: N°06; NAP-5 column purchased from GE Healthcare; article number: 17085301; batch number: 16995164; mircoplate reader purchased from PerkinElmer; model: Envision MLD2105-0020; equipment number 1050369. The effect of compounds on SOS1-catalyzed displacement of GDP by GTP on KRAS protein was examined using a homogeneous time-resolved fluorescence (HTRF) method. 30 μM 6×his-tagged KRAS G12C recombinant protein was incubated with 80 μM fluorescent dye DY647-labeled GDP in labeling buffer (1 mM DTT, 7.5 mM EDTA, 25 mM Tris-HCl, 45 mM NaCl) at 20° C. in the dark for 2 hours, purified using NAP-5 column, and then protein quantification was performed with Bradford Assay Kit after purification to determine the concentration of KRAS […] 3.16-fold gradient concentration stock solution of 1000× compound was prepared with DMSO, and diluted 250-fold to 4× compound stock solution with reaction buffer (40 mM HEPES, 10 mM MgCl2, 1 mM DTT, 0.002% Triton X-100). KRAS G12C-GDP/Tb working solution (40 nM KRAS […] Tb) and SOS1/GTP working solution (0.2 μM SOS1, 200 μM GTP) were prepared using the reaction buffer. A white opaque 96-well plate was taken, and 5 μL of 4× compound stock solution and 10 μL of KRAS G12C-GDP/Tb working solution were added to each well. 5 μL of reaction buffer instead of 4x compound stock solution was used in the control well. After incubation in the dark for 15 minutes at 20° C., 5μL of SOS1/GTP working solution was added thereto, and the fluorescence value (excitation wavelength: 320 nm, emission wavelength: 615 nm and 665 nm) was read after incubating at 20° C. in the dark for 2 hours. Another T0 group was set up with 10 μL reaction buffer+10 μL KRAS G12C-GDP/Tb working solution, and the fluorescence value was read directly by the microplate reader. The fluorescence signal ratio RLU=(665 nm signal/615 nm signal)×10^4; and the compound inhibition rate IR (%)=(RLUcompound-RLUcontrol)/(RLUT0-RLUcontrol)×100% were calculated. The IC50 value was calculated by fitting the gradient dilution concentration of compound and the corresponding inhibition rate with the four-parameter method. The NEA activity of the compounds prepared in the above embodiments of the present disclosure was 0.0001 μM to 1 μM; the inhibitory activity of some compounds on KRAS G12C mutant MIA PaCa-2 cells was 0.001 μM to 0.5 μM or 0.001 μM to 0.1 μM.
On to `C=CC(=O)N1CCN2C(=O)c3c(N4CCN(C(=O)C5CC5)C[C@@H]4C)nc(-c4c(O)cccc4F)c(Cl)c3OC[C@H]2C1` [Z320-1, (6aR)-8-acryloyl-4-chloro-1-((S)-4-(cyclopropanecarbonyl)-2-methylpiperazin-1-yl)-3-(2-fluoro-6-hydroxyphenyl)-6,6a,7,8,9,10-hexahydro-12H-pyrazino[2,1-c]pyrido[3,4-f][1,4]oxazepin-12-one], for which the half-inhibitory concentration (IC50) amounted to 9 nM.

The compound `C=CC(=O)N1CCN2C(=O)c3c(N4C[C@H](O)CC4(C)C)nc(-c4c(O)ccc(Cl)c4F)c(F)c3OC[C@H]2C1` (single isomer, unassigned) [Z340-2] yielded an IC50 of 98 nM.

Turning to `C=CC(=O)N1CCN2C(=O)c3c(N4CC(=O)N(CC)C[C@@H]4C)nc(-c4c(O)cccc4F)c(Cl)c3OC[C@H]2C1` [Z319-1, (6aR)-8-acryloyl-4-chloro-1-((S)-4-ethyl-2-methyl-5-oxopiperazin-1-yl)-3-(2-fluoro-6-hydroxyphenyl)-6,6a,7,8,9,10-hexahydro-12H-pyrazino[2,1-c]pyrido[3,4-f][1,4]oxazepin-12-one], the IC50 is 9 nM.

`C=CC(=O)N1CCN2C(=O)c3c(N4CCN(CCOC)C(C)(C)C4)nc(-c4c(O)cccc4F)c(Cl)c3OC[C@H]2C1` [Z321, (6aR)-8-acryloyl-4-chloro-3-(2-fluoro-6-hydroxyphenyl)-1-(4-(2-methoxyethyl)-3,3-dimethylpiperazin-1-yl)-6,6a,7,8,9,10-hexahydro-12H-pyrazino[2,1-c]pyrido[3,4-f][1,4]oxazepin-12-one] returned an IC50 of 78 nM.

Compound `C=CC(=O)N1CCN2C(=O)c3c(N4C[C@@H](O)CC4(C)C)nc(-c4c(F)ccc(F)c4O)c(F)c3OC[C@H]2C1` (single isomer, unassigned) [Z449-1] gave an IC50 of 31 nM.

`C=CC(=O)N1CCN2C(=O)c3c(N4CCN(C(C)=O)C(C)(C)C4)nc(-c4c(O)cccc4F)c(Cl)c3OC[C@H]2C1` [Z315, (6aR)-1-(4-acetyl-3,3-dimethylpiperazin-1-yl)-8-acryloyl-4-chloro-3-(2-fluoro-6-hydroxyphenyl)-6,6a,7,8,9,10-hexahydro-12H-pyrazino[2,1-c]pyrido[3,4-f][1,4]oxazepin-12-one] had an IC50 of 33 nM.

As to `C=CC(=O)N1CCN2C(=O)c3c(N4CC[C@H](OC)C4(C)C)nc(-c4c(O)cccc4F)c(F)c3OC[C@H]2C1` (single isomer, unassigned) [Z327-2], the IC50 turned out to be 64 nM.

In turn, `C=CC(=O)N1CCN2C(=O)c3c(N4CC(N(C)C5COC5)CC4(C)C)nc(-c4c(O)cccc4F)c(Cl)c3OC[C@H]2C1` (stereo partly drawn) [Z326, (6aR)-8-acryloyl-4-chloro-1-(2,2-dimethyl-4-(methyl(oxetan-3-yl)amino)pyrrolidin-1-yl)-3-(2-fluoro-6-hydroxyphenyl)-6,6a,7,8,9,10-hexahydro-12H-pyrazino[2,1-c]pyrido[3,4-f][1,4]oxazepin-12-one] had an IC50 of 8 nM.

`C=CC(=O)N1CCN2C(=O)c3c(N4C[C@H](CO)CC4(C)C)nc(-c4c(O)cccc4F)c(Cl)c3OC[C@H]2C1` (single isomer, unassigned) [Z240-2] gave a half-maximal inhibitory concentration (IC50) of 11 nM.

Compound `C=CC(=O)N1CCN2C(=O)c3c(N4C[C@H](N(C)C)C[C@@H]4C)nc(-c4c(O)cccc4F)c(Cl)c3OC[C@H]2C1` [Z237-1, (6aR)-8-acryloyl-4-chloro-1-((2S,4R)-4-(dimethylamino)-2-methylpyrrolidin-1-yl)-3-(2-fluoro-6-hydroxyphenyl)-6,6a,7,8,9,10-hexahydro-12H-pyrazino[2,1-c]pyrido[3,4-f][1,4]oxazepin-12-one] gave an IC50 of 122 nM.

Compound `C=CC(=O)N1CCN2C(=O)c3c(N4Cc5cn(C)nc5C4(C)C)nc(-c4c(O)cccc4F)c(Cl)c3OC[C@H]2C1` [Z310, (6aR)-8-acryloyl-1-(2,6,6-trimethylpyrrolo[3,4-c]pyrazol-5(2H,4H,6H)-yl)-4-chloro-3-(2-fluoro-6-hydroxyphenyl)-6,6a,7,8,9,10-hexahydro-12H-pyrazino[2,1-c]pyrido[3,4-f][1,4]oxazepin-12-one] showed an IC50 of 36 nM.

Turning to `C=CC(=O)N1CCN2C(=O)c3c(N4C[C@H](OC)C[C@@H]4C)nc(-c4c(O)cccc4F)c(Cl)c3OC[C@H]2C1` [Z259a, (6aR)-8-acryloyl-4-chloro-3-(2-fluoro-6-hydroxyphenyl)-1-((2S,4R)-4-methoxy-2-methylpyrrolidin-1-yl)-6,6a,7,8,9,10-hexahydro-12H-pyrazino[2,1-c]pyrido[3,4-f][1,4]oxazepin-12-one], the IC50 worked out at 26 nM.

As to `C=CC(=O)N1CCN2C(=O)c3c(N4CC[C@@H](OC)C4(C)C)nc(-c4c(O)cccc4F)c(Cl)c3OC[C@H]2C1` (single isomer, unassigned) [Z241a-2], the IC50 came to 5 nM.

Compound `C=CC(=O)N1CCN2C(=O)c3c(N4CC[C@H](N(C)C)C4(C)C)nc(-c4c(O)cccc4F)c(Cl)c3OC[C@H]2C1` (single isomer, unassigned) [Z360-2] gave a concentration for half-maximal inhibition (IC50) of 36.9 nM.

For `C=CC(=O)N1CCN2C(=O)c3c(N4C[C@H](O)CC4(C)C)nc(-c4ccccc4F)c(Cl)c3OC[C@H]2C1` (single isomer, unassigned) [Z325-2], the IC50 was 35 nM.

Turning to `C=CC(=O)N1CCN2C(=O)c3c(N4CC(C)(C)OC[C@@H]4C)nc(-c4c(O)cccc4F)c(Cl)c3OC[C@H]2C1` [Z276-1, (6aR)-8-acryloyl-4-chloro-3-(2-fluoro-6-hydroxyphenyl)-1-((S)-2,2,5-trimethylmorpholino)-6,6a,7,8,9,10-hexahydro-12H-pyrazino[2,1-c]pyrido[3,4-f][1,4]oxazepin-12-one], the IC50 was determined as 113 nM.

`C=CC(=O)N1CCN2C(=O)c3c(N4CCO[C@](C)(COC)C4)nc(-c4c(O)cccc4F)c(Cl)c3OC[C@H]2C1` (single isomer, unassigned) [Z332-1] had an IC50 of 130 nM.

In the case of `C=CC(=O)N1CCN2C(=O)c3c(N4CC(C)(O)CC4(C)C)nc(-c4c(O)cccc4F)c(Cl)c3OC[C@H]2C1` (stereo partly drawn) [Z243, (6aR)-8-acryloyl-4-chloro-3-(2-fluoro-6-hydroxyphenyl)-1-(4-hydroxy-2,2,4-trimethylpyrrolidin-1-yl)-6,6a,7,8,9,10-hexahydro-12H-pyrazino[2,1-c]pyrido[3,4-f][1,4]oxazepin-12-one], the IC50 stood at 23 nM.

The compound `C=CC(=O)N1CCN2C(=O)c3c(N4C[C@H](N5CCOCC5)CC4(C)C)nc(-c4c(O)cccc4F)c(Cl)c3OC[C@H]2C1` (single isomer, unassigned) [Z297-1] displayed a half-inhibitory concentration (IC50) of 19 nM.

Compound `C=CC(=O)N1CCN2C(=O)c3c(N4CCN(CCOC)C[C@@H]4C)nc(-c4c(O)cccc4F)c(Cl)c3OC[C@H]2C1` [Z257a, (6aR)-8-acryloyl-4-chloro-3-(2-fluoro-6-hydroxyphenyl)-1-((S)-4-(2-methoxyethyl)-2-methylpiperazin-1-yl)-6,6a,7,8,9,10-hexahydro-12H-pyrazino[2,1-c]pyrido[3,4-f][1,4]oxazepin-12-one] came in with an IC50 of 76 nM.

In turn, `C=CC(=O)N1CCN2C(=O)c3c(N4C[C@@H](CO)CC4(C)C)nc(-c4c(O)cccc4F)c(Cl)c3OC[C@H]2C1` (single isomer, unassigned) [Z240-1] displayed a half-inhibitory concentration (IC50) of 11 nM.

`C=CC(=O)N1CCN2C(=O)c3c(N4CCN(C)[C@H](C)[C@@H]4C)nc(-c4c(O)cccc4F)c(Cl)c3OC[C@H]2C1` (single isomer, unassigned) [Z308a-1] gave an IC50 of 58 nM.

`C=CC(=O)N1CCN2C(=O)c3c(N4CCN(C)C[C@@H]4C)nc(-c4nc(N)cc(C)c4C(F)(F)F)c(Cl)c3OC[C@H]2C1` [Z328-1, (R)-8-acryloyl-3-(6-amino-4-methyl-3-(trifluoromethyl)pyridin-2-yl)-4-chloro-1-((S)-2,4-dimethylpiperazin-1-yl)-6,6a,7,8,9,10-hexahydro-12H-pyrazino[2,1-c]pyrido[3,4-f][1,4]oxazepin-12-one] had a half-maximal inhibitory concentration (IC50) of 15 nM.
